Assay results from patent publication US20020082273A1, “Agents for use in the treatment of alzheimer's disease” (priority 1998, published 2002).
Where “and” joins values, the source holds several entries; their conditions need not be identical. Identical values can stand only once. Entries after “also recorded” stand apart in the source; their conditions may differ. Like-named read-outs stand apart in the source and are kept apart here.

Key:
[1] = system: Aβ deposits of AD-affected brain; test: Extraction (solubilization) of Aβ from post-mortem AD brain tissue homogenates, western blot densitometry; format: biochemical, human
Protocol: Identical regions of frontal cortex (0.5 g) from post-mortem brains of individuals with AD, as well as non-AD conditions, were homogenized in TBS, […] ±metal chelators.
0.5 g of prefrontal cortex was dissected and homogenized in PBS ±chelator as indicated. The homogenate was then centrifuged (100,000 g) and the supernatant removed, and a sample taken for western blot assay using anti-Aβ specific antibodies after Tricine PAGE. Densitometry was performed against synthetic peptide standards.
Densitometry of Aβ western blots (FIGS. 19A-19C) was performed for a series of 6 AD brain samples homogenized in the presence of chelators as indicated.
Next the ability of clioquinol to extract Aβ deposits from human brain was examined. […] Fragments of prefrontal cortex from individual post-mortem samples with the histopathological diagnosis of AD were homogenized in PBS, pH 7.4, and then pelleted after centrifugation. The pellets were then washed with agitation twice for 30 minutes, 4° C., with PBS or PBS containing clioquinol (100% =0.8 μM clioquinol). The suspension was then pelleted (10,000 g for 30 minutes) and the supernatant removed (S1) for western blot analysis using Aβ-specific antibodies (illustrated). The pellet was treated a second time in this experiment with agitation and centrifugation, and the second supernatant (S2) analysed.
Soluble Aβ (ng/g tissue) was determined as described. Total Aβ was determined following formic acid extraction of otherwise untreated tissue.
Suitable quantities of gray matter from each subject were minced to serve as pools of homogenous tissue. […] To obtain the soluble fraction, the homogenates were centrifuged at 100,000× g for 30 min (Beckman J180, Beckman instruments, Fullerton, California) and the supernatant collected in 1 ml aliquots and stored on ice or immediately frozen at −70° C. In each experiment, all protein was precipitated from 1 ml of supernatant from each treatment group using 1:5 ice cold 10% trichloracetic acid and pelleted in a bench top microfuge (Heraeus, Osteroder, Germany) at 10,000× g. The remaining pellet was frozen at −70° C.
Precipitated protein was subjected to SDS polyacrylamide gel electrophoresis (SDS-PAGE) on Novex pre-cast 10-20% Tris-Tricine gels followed by Western transfer onto 0.2 μm nitrocellulose membrane (Biorad, Hercules, Calif.). […] Each gel included two or more lanes containing known quantities of synthetic Aβ which served as internal reference standards. Blot images were captured by a Relisys scanner with transparency adapter (Teco Information Systems, Taiwan, ROC) and densitometry conducted using the NIH Image 1.6 program (National Institutes for Health, USA. Modified for PC by Scion Corporation, Frederick, Md.), calibrated using a step diffusion chart. For quantitation of Aβ in brain extracts, the internal reference standards of synthetic Aβ were utilized to produce standard curves from which values were interpolated.

[2] = Residual metals in post-centrifugation pellets of brain homogenates (ICP-AES); format: biochemical, human; conditions: Table 6
[3] = cited from earlier work; for LogK, Ca: Table 1, K=[ML]/[M][L]
[4] = cited from earlier work; for LogK, Cu: K=[ML]/[M][L]
[5] = cited from earlier work; for LogK, Mg: Table 1, K=[ML]/[M][L]
[6] = cited from earlier work; for LogK, Fe: Table 1, K=[ML]/[M][L]
[7] = cited from earlier work; for LogK, Zn: Table 1, K=[ML]/[M][L]
[8] = cited from earlier work; for LogK, Al: Table 1, K=[ML]/[M][L]
[9] = cited from earlier work; for LogK, Co: Table 1, K=[ML]/[M][L]

O=C(O)CN(CCOCCOCCN(CC(=O)O)CC(=O)O)CC(=O)O [EGTA]
Effect of Chelators upon extraction of Aβ (% change from control) ([1]; 0.1 mM chelator, mean n = 6 AD brain samples, above PBS extraction alone): 207% | Effect of Chelators upon extraction of Aβ (% change from control) ([1]; 2.0 mM chelator, mean n = 6 AD brain samples, above PBS extraction alone): 46% | Aβ signal versus PBS control ([1]; EGTA 2 mM): virtually abolished the signal for Aβ; also recorded: diminution in Aβ signal | efficiency in extracting Aβ ([1]; neutral saline buffer, TPEN 5 μM): less efficient | Residual Al in extracted pellet ([2]; chelator 0.001 mM): 43 mg/kg | Residual Ca in extracted pellet ([2]; chelator 0.001 mM): 862 mg/kg | Residual Cu in extracted pellet ([2]; chelator 0.001 mM): 12 mg/kg | Residual Fe in extracted pellet ([2]; chelator 0.001 mM): 281 mg/kg | Residual Mg in extracted pellet ([2]; chelator 0.001 mM): 237 mg/kg | Residual Zn in extracted pellet ([2]; chelator 0.001 mM): 49 mg/kg | Residual Al in extracted pellet ([2]; chelator 0.004 mM): 73 mg/kg | Residual Ca in extracted pellet ([2]; chelator 0.004 mM): 795 mg/kg | Residual Cu in extracted pellet ([2]; chelator 0.004 mM): 11 mg/kg | Residual Fe in extracted pellet ([2]; chelator 0.004 mM): 247 mg/kg | Residual Mg in extracted pellet ([2]; chelator 0.004 mM): 228 mg/kg | Residual Zn in extracted pellet ([2]; chelator 0.004 mM): 53 mg/kg | Residual Al in extracted pellet ([2]; chelator 0.01 mM): 61 mg/kg | Residual Ca in extracted pellet ([2]; chelator 0.01 mM): 675 mg/kg | Residual Cu in extracted pellet ([2]; chelator 0.01 mM): 13 mg/kg | Residual Fe in extracted pellet ([2]; chelator 0.01 mM): 272 mg/kg | Residual Mg in extracted pellet ([2]; chelator 0.01 mM): 213 mg/kg | Residual Zn in extracted pellet ([2]; chelator 0.01 mM): 54 mg/kg | Residual Al in extracted pellet ([2]; chelator 0.04 mM): 104 mg/kg | Residual Ca in extracted pellet ([2]; chelator 0.04 mM): 1402 mg/kg | Residual Cu in extracted pellet ([2]; chelator 0.04 mM): 13 mg/kg | Residual Fe in extracted pellet ([2]; chelator 0.04 mM): 438 mg/kg | Residual Mg in extracted pellet ([2]; chelator 0.04 mM): 247 mg/kg | Residual Zn in extracted pellet ([2]; chelator 0.04 mM): 71 mg/kg | Residual Al in extracted pellet ([2]; chelator 2.0 mM): 62 mg/kg | Residual Ca in extracted pellet ([2]; chelator 2.0 mM): 519 mg/kg | Residual Cu in extracted pellet ([2]; chelator 2.0 mM): 13 mg/kg | Residual Fe in extracted pellet ([2]; chelator 2.0 mM): 238 mg/kg | Residual Mg in extracted pellet ([2]; chelator 2.0 mM): 191 mg/kg | Residual Zn in extracted pellet ([2]; chelator 2.0 mM): 27 mg/kg | Residual Al in extracted pellet ([2]; chelator 5.0 mM): 27 mg/kg | Residual Ca in extracted pellet ([2]; chelator 5.0 mM): 455 mg/kg | Residual Cu in extracted pellet ([2]; chelator 5.0 mM): 12 mg/kg | Residual Fe in extracted pellet ([2]; chelator 5.0 mM): 230 mg/kg | Residual Mg in extracted pellet ([2]; chelator 5.0 mM): 168 mg/kg | Residual Zn in extracted pellet ([2]; chelator 5.0 mM): 18 mg/kg | LogK, Ca [3]: 10.9 | Stability constant logK10, Ca ([3]; Table 5, NIST database): 10.86 | LogK, Cu ([4]; Table 1): 17.6 | Stability constant logK10, Cu ([4]; Table 5, NIST database): 17.57 | LogK, Mg [5]: 5.3 | Stability constant logK10, Mg ([5]; Table 5, NIST database): 5.28 | LogK, Fe [6]: 11.8 | Stability constant logK10, Fe ([6]; Table 5, NIST database): 11.8 | LogK, Zn [7]: 12.6 | Stability constant logK10, Zn ([7]; Table 5, NIST database): 12.6 | LogK, Al [8]: 13.9 | Stability constant logK10, Al ([8]; Table 5, NIST database): 13.9 | LogK, Co [9]: 12.4 | Stability constant logK10, Co ([9]; Table 5, NIST database): 12.35

O=C(O)CN(CCN(CC(=O)O)CC(=O)O)CCN(CC(=O)O)CC(=O)O [DTPA, diethylenetriaminopenta acetic acid]
log stability constant ([4]; FIG. 34C legend, metal not given, Cu^2+ implied): 21.1

bathocuproinedisulfonic acid [BC]
Effect of Chelators upon extraction of Aβ (% change from control) [1]: 301% and 400% | efficiency in extracting Aβ [1]: highly efficient | LogK, Ca [3]: 0 | LogK, Cu (Cu^+) ([4]; Table 1, value for Cu^+): 19.1 | LogK, Mg [5]: 0 | LogK, Fe [6]: 0 | LogK, Zn [7]: 4.1 | LogK, Al [8]: 0 | LogK, Co [9]: 4.2

c1ccc(-c2ccnc3c2ccc2c(-c4ccccc4)ccnc23)cc1 [Bathophenanthroline]
LogK, Ca [3]: 0 | LogK, Cu ([4]; Table 1): 8.8 | LogK, Mg [5]: 0 | LogK, Fe [6]: 5.6 | LogK, Zn [7]: 6.9 | LogK, Al [8]: 0 | LogK, Co [9]: 0

CC(C)(S)[C@@H](N)C(=O)O [Penicillamine]
LogK, Ca [3]: 0 | LogK, Cu ([4]; Table 1): 18.2 | LogK, Mg [5]: 0 | LogK, Fe [6]: 0 | LogK, Zn [7]: 10.2 | LogK, Al [8]: 0 | LogK, Co [9]: 0
